Experimental findings from patent publication US9669034B2, “4-aryl-N-phenyl-1,3,5-triazin-2-amines containing a sulfoximine group” (BAYER INTELLECTUAL PROPERTY GMBH, priority 2011, dated 2017) are described below.

One assay has as its target CDK9/CycT1 (Homo sapiens (Human), UniProt P50750). The assay can be described thus: CDK9/CycT1 kinase assay (TR-FRET). It counts as biochemical. To be noted: Method 1. In outline:
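TR-FRET read-out of kinase inhibition, with a biotin-Ttds-tagged peptide as substrate. Enzyme: human CDK9 and CycT1, full-length with His tags, produced in insect cells and purified on Ni-NTA.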

The target in the next assay is CDK2/CycE (Homo sapiens (Human), UniProt P24941). The assay can be described thus: CDK2/CycE kinase assay (TR-FRET). In kind it is biochemical. To be noted: Method 2. The method, boiled down:
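TR-FRET measurement of inhibition of phosphorylation of a biotinylated peptide substrate. Enzyme complex consisted of human CDK2 and CycE, each as a GST fusion made in Sf9 cells and purified over glutathione-Sepharose.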

Assay [1] has as its system HeLa human cervical tumour cells. The assay can be described thus: Proliferation assay (crystal violet), HeLa. In kind it is cell-based. To be noted: Homo sapiens, HeLa, Method 3, read-out: Inhibition of HeLa cell proliferation, IC50. The method, boiled down: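 Cells were seeded at 3000/well (NCI-H460, HeLa), 5000/well (HeLa-MaTu-ADR) or 1500/well (Caco-2) in medium with 10% FCS. After 24 h, compounds ([…], 0.5% DMSO) were added for 4 days. Crystal violet absorbance at 595 nm was normalized to a zero-point plate and untreated cells; IC50 came from a 4-parameter fit.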

The subject of assay [2] is HeLa-MaTu-ADR, multidrug-resistant human cervical carcinoma cells. Description: Proliferation assay (crystal violet), HeLa-MaTu-ADR. It counts as cell-based. To be noted: Homo sapiens, HeLa, Method 3, read-out: Inhibition of HeLa/MaTu/ADR cell proliferation, IC50. On the procedure:
(§1) Cultivated tumour cells (NCI-H460, human non-small cell lung carcinoma cells, ATCC HTB-177; DU145, hormone-independent human prostate carcinoma cells, ATCC HTB-81; HeLa-MaTu, human cervical carcinoma cells, EPO-GmbH, Berlin; HeLa-MaTu-ADR, multidrug-resistant human cervical carcinoma cells, EPO-GmbH, Berlin; HeLa human cervical tumour cells, ATCC CCL-2; Caco-2 human colorectal carcinoma, ATCC HTB-37; B16F10 mouse melanoma cells, ATCC CRL-6475) were plated at a density of 5000 cells/well (DU145, HeLa-MaTu-ADR), 3000 cells/well (NCI-H460, HeLa-MaTu, HeLa), 1500 cells/well (Caco-2), or 1000 cells/well (B16 F10) in a 96-well multititer plate in 200 μL of their respective growth medium supplemented 10% fetal calf serum. After 24 hours, the cells of one plate (zero-point plate) were stained with crystal violet (see below), while the medium of the other plates was replaced by fresh culture medium (200 μL), to which the test substances were added in various concentrations (0 M, as well as in the range of […]; the final concentration of the solvent dimethylsulfoxide was 0.5%). The cells were incubated for 4 days in the presence of test substances. Cell proliferation was determined by staining the cells with crystal violet: the cells were fixed by adding 20 μL/measuring point of an 11% glutaric aldehyde solution for 15 minutes at room temperature. After three washing cycles of the fixed cells with water, the plates were dried at room temperature. The cells were stained by adding 100 μL/measuring point of a 0.1% crystal violet solution (pH 3.0). After three washing cycles of the stained cells with water, the plates were dried at room temperature. The dye was dissolved by adding 100 μL/measuring point of a 10% acetic acid solution. The absorbance was determined by photometry at a wavelength of 595 nm. The change of cell number, in percent, was calculated by normalization of the measured values to the absorbance values of the zero-point plate (=0%) and the absorbance of the untreated (0 M) cells (=100%). The IC50 values were determined by means of a 4 parameter fit.

Assay [3] has as its system NCI-H460, human non-small cell lung carcinoma cells. Description: Proliferation assay (crystal violet), NCI-H460. In kind it is cell-based. To be noted: Homo sapiens, NCI-H460, NCI-H460 cells, Method 3; read-out: Inhibition of NCI-H460 cell proliferation, IC50. On the procedure: as §1
Assay [4] deals with DU145, hormone-independent human prostate carcinoma cells. The assay can be described thus: Proliferation assay (crystal violet), DU145. To be noted: Homo sapiens, DU-145, DU145 cells, Method 3; read-out: Inhibition of DU145 cell proliferation, IC50. It counts as cell-based. How it is done: as §1
Assay [5] relates to Caco-2 human colorectal carcinoma. The assay can be described thus: Proliferation assay (crystal violet), Caco-2. It counts as cell-based. To be noted: Homo sapiens, Caco-2, Caco-2 cells, Method 3; read-out: Inhibition of Caco-2 cell proliferation, IC50. On the procedure: as §1
In assay [6] the test system is B16F10 mouse melanoma cells. The assay can be described thus: Proliferation assay (crystal violet), B16F10. To be noted: Mus musculus, B16-F10, B16F10 cells, Method 3; read-out: Inhibition of B16F10 cell proliferation, IC50. In kind it is cell-based. How it is done: as §1

CDK9/CycT1, sequence (P50750 whole entry): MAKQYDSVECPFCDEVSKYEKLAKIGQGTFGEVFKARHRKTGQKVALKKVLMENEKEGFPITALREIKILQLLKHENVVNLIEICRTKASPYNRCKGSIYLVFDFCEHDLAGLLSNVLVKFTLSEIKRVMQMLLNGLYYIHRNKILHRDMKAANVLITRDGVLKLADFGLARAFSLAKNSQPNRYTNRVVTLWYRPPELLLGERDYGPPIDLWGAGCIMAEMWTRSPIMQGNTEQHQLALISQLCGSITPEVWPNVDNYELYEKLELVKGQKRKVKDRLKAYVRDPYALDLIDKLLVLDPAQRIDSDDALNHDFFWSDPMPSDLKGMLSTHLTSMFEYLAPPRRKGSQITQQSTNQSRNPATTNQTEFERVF
CDK9/CycT1, sequence (O60563 whole entry partner): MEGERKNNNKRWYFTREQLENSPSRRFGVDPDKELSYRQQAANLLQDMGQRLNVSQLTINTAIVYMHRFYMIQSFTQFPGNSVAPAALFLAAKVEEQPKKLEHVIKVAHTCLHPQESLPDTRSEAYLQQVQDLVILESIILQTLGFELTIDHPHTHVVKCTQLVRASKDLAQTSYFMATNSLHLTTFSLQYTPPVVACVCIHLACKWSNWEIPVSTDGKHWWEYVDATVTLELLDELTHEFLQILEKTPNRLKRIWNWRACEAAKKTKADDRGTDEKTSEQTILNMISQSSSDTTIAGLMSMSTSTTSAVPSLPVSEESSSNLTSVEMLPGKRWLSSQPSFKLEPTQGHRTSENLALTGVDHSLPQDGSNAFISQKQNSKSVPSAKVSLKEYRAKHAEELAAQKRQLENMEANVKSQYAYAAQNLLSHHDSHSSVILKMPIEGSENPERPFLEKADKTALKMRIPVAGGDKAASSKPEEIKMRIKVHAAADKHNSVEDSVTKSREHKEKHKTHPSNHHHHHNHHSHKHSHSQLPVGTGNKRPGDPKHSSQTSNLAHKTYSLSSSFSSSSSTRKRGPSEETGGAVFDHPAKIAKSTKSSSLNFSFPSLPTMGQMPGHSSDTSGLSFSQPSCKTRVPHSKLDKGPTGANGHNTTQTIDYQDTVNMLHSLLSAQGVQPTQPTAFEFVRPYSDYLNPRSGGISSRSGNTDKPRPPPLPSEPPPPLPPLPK

For the compound `CS(=N)(=O)Cc1cccc(Nc2ncnc(-c3ccc(F)cc3OCc3ccnc(F)c3)n2)c1` (racemic) [Example 82, (rac)-4-{4-Fluoro-2-[(2-fluoropyridin-4-yl)methoxy]phenyl}-N-{3-[(S-methylsulfonimidoyl)methyl]phenyl}-1,3,5-triazin-2-amine], the IC50 was 0.007 µM against CDK9/CycT1; 0.36 µM on CDK2/CycE; 0.18 µM in assay [1]; 0.19 µM in assay [2]; 0.18 µM in assay [3]; 0.13 µM in assay [4]. Further, the IC50 in assay [5] was determined as 0.18 µM; in assay [6] it was 0.15 µM.
As for `C=CCOc1cc(F)ccc1-c1ncnc(Nc2cccc(CS(C)(=N)=O)c2)n1` (racemic) [Example 85, (rac)-4-[4-Fluoro-2-(prop-2-en-1-yloxy)phenyl]-N-{3-[(S-methylsulfonimidoyl)methyl]phenyl}-1,3,5-triazin-2-amine], the IC50 was found to be 0.009 µM against CDK9/CycT1; 0.38 µM on CDK2/CycE; 0.33 µM in assay [1]; 0.56 µM in assay [2]; 0.23 µM in assay [3]; 0.19 µM in assay [4]. Moreover, the IC50 in assay [5] was 0.051 µM; in assay [6], 0.28 µM.
Take `CS(=N)(=O)Cc1cccc(Nc2ncnc(-c3ccc(F)cc3OCc3ccc(Cl)cc3)n2)c1` (racemic) [Example 87, (rac)-4-{2-[(4-Chlorobenzyl)oxy]-4-fluorophenyl}-N-{3-[(S-methylsulfonimidoyl)methyl]phenyl}-1,3,5-triazin-2-amine]: the IC50 against CDK9/CycT1 stood at 0.003 µM; at CDK2/CycE, 0.68 µM; in assay [1], 0.56 µM; in assay [2], 0.45 µM; in assay [3], 0.57 µM; in assay [4], 0.61 µM. Besides, the IC50 in assay [5] was 0.8 µM; in assay [6] it was 0.59 µM.
On to `CS(=N)(=O)Cc1cccc(Nc2ncnc(-c3ccc(F)cc3OCc3cc(F)cc(C(F)(F)F)c3)n2)c1` (racemic) [Example 89, (rac)-4-(4-Fluoro-2-{[3-fluoro-5-(trifluoromethyl)benzyl]oxy}phenyl)-N-{3-[(S-methylsulfonimidoyl)methyl]phenyl}-1,3,5-triazin-2-amine], for which the IC50 at CDK9/CycT1 came out at 0.004 µM; at CDK2/CycE, 0.28 µM; in assay [1], 0.47 µM; in assay [2] it was 0.45 µM; in assay [3], 0.37 µM; in assay [4], 0.42 µM. Besides, the IC50 was 0.52 µM in assay [5] and 0.47 µM in assay [6].
For the compound `CS(=N)(=O)Cc1cccc(Nc2ncnc(-c3ccc(F)cc3OCc3cccc(F)c3)n2)c1` (racemic) [Example 90, (rac)-4-{4-Fluoro-2-[(3-fluorobenzyl)oxy]phenyl}-N-{3-[(S-methylsulfonimidoyl)methyl]phenyl}-1,3,5-triazin-2-amine], the IC50 was 0.002 µM against CDK9/CycT1; 0.26 µM at CDK2/CycE; 0.17 µM in assay [1]; 0.1 µM in assay [2]; 0.11 µM in assay [3]; 0.11 µM in assay [4]. Further, the IC50 was 0.08 µM in assay [5] and 0.1 µM in assay [6].
With `CS(=N)(=O)Cc1cccc(Nc2ncnc(-c3ccc(F)cc3OCc3cccc(Cl)c3)n2)c1` (racemic) [Example 92, (rac)-4-{2-[(3-Chlorobenzyl)oxy]-4-fluorophenyl}-N-{3-[(S-methylsulfonimidoyl)methyl]phenyl}-1,3,5-triazin-2-amine], the IC50 against CDK9/CycT1 worked out at 0.004 µM; against CDK2/CycE it was 0.25 µM; in assay [1], 0.47 µM; in assay [2], 0.36 µM; in assay [3] it was 0.17 µM; in assay [4] it was 0.38 µM. The IC50 was 0.43 µM in assay [5] and 0.39 µM in assay [6].
For the compound `CS(=N)(=O)Cc1cccc(Nc2ncnc(-c3ccc(F)cc3OCc3cc(F)cc(Cl)c3)n2)c1` (racemic) [Example 94, (rac)-4-{2-[(3-Chloro-5-fluorobenzyl)oxy]-4-fluorophenyl}-N-{3-[(S-methylsulfonimidoyl)methyl]phenyl}-1,3,5-triazin-2-amine], the IC50 at CDK9/CycT1 is 0.003 µM; at CDK2/CycE it was 0.23 µM; in assay [1], 0.11 µM; in assay [2] it was 0.19 µM; in assay [3] it was 0.2 µM; in assay [4], 0.14 µM. The IC50 is 0.22 µM in assay [5] and 0.18 µM in assay [6].
In the case of `CS(=N)(=O)Cc1cccc(Nc2ncnc(-c3ccc(F)cc3OCc3cccc(C#N)c3)n2)c1` (racemic) [Example 98, (rac)-3-({5-Fluoro-2-[4-({3-[(S-methylsulfonimidoyl)methyl]phenyl}amino)-1,3,5-triazin-2-yl]phenoxy}methyl)benzonitrile], the IC50 was found to be 0.003 µM at CDK9/CycT1; 0.18 µM at CDK2/CycE; 0.14 µM in assay [1]; 0.26 µM in assay [2]; 0.12 µM in assay [3]; 0.12 µM in assay [4]. Besides, the results for the IC50 in assay [5] and in assay [6] were 0.15 µM and 0.13 µM, respectively.
On to `C=C(C)COc1cc(F)ccc1-c1ncnc(Nc2cccc(CS(C)(=N)=O)c2)n1` (racemic) [Example 99, (rac)-4-{4-Fluoro-2-[(2-methylprop-2-en-1-yl)oxy]phenyl}-N-{3-[(S-methylsulfonimidoyl)methyl]phenyl}-1,3,5-triazin-2-amine], for which the IC50 on CDK9/CycT1 stood at 0.002 µM; at CDK2/CycE, 0.25 µM; in assay [1], 0.12 µM; in assay [2] it was 0.18 µM; in assay [3], 0.15 µM; in assay [4], 0.12 µM. For the same compound, the IC50 in assay [5] is 0.23 µM; in assay [6] it was 0.2 µM.
For the compound `CS(=N)(=O)Cc1cccc(Nc2ncnc(-c3ccc(F)cc3OCc3cc(F)cc(F)c3F)n2)c1` (racemic) [Example 101, (rac)-4-{4-Fluoro-2-[(2,3,5-trifluorobenzyl)oxy]phenyl}-N-{3-[(S-methylsulfonimidoyl)methyl]phenyl}-1,3,5-triazin-2-amine], the IC50 against CDK9/CycT1 was 0.004 µM; on CDK2/CycE, 0.5 µM; in assay [1], 0.33 µM; in assay [2], 0.35 µM; in assay [3], 0.36 µM; in assay [4] it was 0.34 µM. Moreover, the IC50 in assay [5] came out at 0.24 µM; in assay [6], 0.34 µM.
`C/C=C\COc1cc(F)ccc1-c1ncnc(Nc2cccc(CS(C)(=N)=O)c2)n1` (racemic) [Example 102, (rac)-4-{2-[(2Z)-But-2-en-1-yloxy]-4-fluorophenyl}-N-{3-[(S-methylsulfonimidoyl)methyl]phenyl}-1,3,5-triazin-2-amine]: the IC50 came to 0.007 µM against CDK9/CycT1; 0.8 µM on CDK2/CycE; 0.34 µM in assay [1]; 0.14 µM in assay [2]; 0.15 µM in assay [3]; 0.095 µM in assay [4]. Moreover, the IC50 in assay [5] came to 0.16 µM; in assay [6], 0.14 µM.
